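Protocol summary: plate cells (96-well), add compound at 5 concentrations, incubate 48 h, interpolate endpoints linearly. Abbreviation: GI50, concentration required for 50% inhibition of growth. TGI marks complete inhibition of growth.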
Tests used:
Assay in all cases: DTP human tumour cell line panel, 48 h
SF-295 CNS = system: SF-295 CNS
NCI-H23 lung = system: NCI-H23 lung
SK-MEL-5 melanoma = system: SK-MEL-5 melanoma
SF-268 CNS = system: SF-268 CNS
OVCAR-4 ovarian = system: OVCAR-4 ovarian
NCI-H460 lung = system: NCI-H460 lung
U251 CNS = system: U251 CNS
SNB-19 CNS = system: SNB-19 CNS
NCI-H522 lung = system: NCI-H522 lung
HS 578T breast = system: HS 578T breast

Compound	GI50 (SF-295 CNS) [µM]	TGI (SF-295 CNS) [µM]	GI50 (NCI-H23 lung) [µM]	TGI (NCI-H23 lung) [µM]	GI50 (SK-MEL-5 melanoma) [µM]	TGI (SK-MEL-5 melanoma) [µM]	GI50 (SF-268 CNS) [µM]	TGI (SF-268 CNS) [µM]	GI50 (OVCAR-4 ovarian) [µM]	TGI (OVCAR-4 ovarian) [µM]	GI50 (NCI-H460 lung) [µM]	TGI (NCI-H460 lung) [µM]	GI50 (U251 CNS) [µM]	TGI (U251 CNS) [µM]	GI50 (SNB-19 CNS) [µM]	TGI (SNB-19 CNS) [µM]	TGI (NCI-H522 lung) [µM]	GI50 (HS 578T breast) [µM]	TGI (HS 578T breast) [µM]	GI50 (NCI-H522 lung) [µM]
N.N.N.N.N.N#Cc1nn[n-]n1.[Cl-].[Co+3]	> 100	> 100	> 100	> 100	> 100	> 100	> 100	> 100	> 100	> 100	> 100	> 100	> 100	> 100	> 100	> 100				
CC(=O)n1nnc2ccc([N+](=O)[O-])cc21		> 100		> 100		> 100		> 100		> 100		> 100		> 100		> 100	> 100			
COC(=O)C(=O)C(C#N)c1cccc(Cl)c1 (stereo not given)		> 100		> 100		> 100		> 100		> 100		> 100		> 100		> 100	> 100			
Cn1nc(-c2ccccc2)c2c(/C=C/c3ccc(Cl)cc3)onc2c1=O		68.8		> 100		> 100		> 100				> 100		> 100		> 100	45.5			
N#CCCN(C1=NN(C(=O)CC(=O)Nc2ccc(Cl)cc2)C(c2ccccc2)C1)c1ccc(Cl)cc1 (stereo not given)		> 100		> 100		> 100		> 100		> 100		> 100		> 100		> 100	> 100			
Cn1cnc([N+](=O)[O-])c1Sc1nc2ccccc2o1		74.9		17.1		26.5		14.4		15		> 71.6		26.2		30.9	4.42			
O=C1Nc2ccc(O)cc2/C1=C\c1ccncc1	25.9	77.8	25.1	62.4	15.5	38.1	12	36.3			12.7	42.9	10.3	23.1	21.2	59	38.2	29.2	97.3	11.5
COc1ccc(C2=NN(C=O)C(c3ccc(OS(=O)(=O)c4ccc(C)cc4)c(OC)c3)C2)cc1 (stereo not given)	3.58	25.2	4.58	> 100			17.2	> 100			8.86	> 100			11.7	> 100	90.4	5.66	88.3	4.22
COc1ccc(NC(=S)C#N)cc1		> 100		> 100		> 100		> 100						> 100		> 100				
O=CC1CCC=CC1NC(=O)OCc1ccccc1 (stereo not given)		> 100		> 100		> 100		> 100		> 100		> 100		> 100			> 100			
COC1=CC(c2ccc[nH]2)=N/C1=C\c1[nH]c(C)c(C(=O)Oc2ccccc2)c1C	0.329	1.95	0.227	1.95	0.0929	0.269			0.236		0.077	1.4	0.148	1.6	1.29	> 100	0.979	0.205	0.828	0.227
O=C(CCC(=O)Nc1ccc(Cl)cc1)CC(=O)c1ccc2ccccc2c1		> 100		> 100		> 100		> 100		> 100		> 100		> 100		> 100	> 100			
O=C(Nc1ccccc1)n1cc(-c2ccccn2)c(N2CCOCC2)n1		28.2				> 100		> 100		> 100		> 100		> 100		> 100	6.58			
CN(C)CCCOc1ccc(/C=C2/CCC/C(=C/c3ccc(OCCCN(C)C)cc3)C2=O)cc1		3.65		3.63		3.92		4.84		7.1		4.16		2.13		4.74	3.75			
CC[O-].CC[O-].COc1ccc(C(=O)[CH-]C(C)=O)cc1OC.COc1ccc(C(=O)[CH-]C(C)=O)cc1OC.[Ti+4]	33.9	> 100	> 100	> 100	> 100	> 100	> 100	> 100	> 100	> 100	55.8	> 100			73	> 100				
CCC(C)C(=O)O[C@H]1C(=O)O[C@@H]2C[C@H]3C(C)=CC(=O)[C@@H](O)[C@]3(C)[C@H]3[C@@H](O)[C@H](O)[C@@]4(C)OC[C@]32[C@@H]14 (stereo not given in full)				< 0.01		< 0.0338		0.454		< 0.01		< 0.0185		< 0.0345		< 0.0291	0.0773		< 0.01	
C/C=C(\C)c1cc(=O)c2c(C)cc3c(c2o1)C(OC)(OC(C)=O)c1c(O)c(C2CC(C)(N(C)C)C(OC(C)=O)C(C)O2)cc(C2CC(N(C)C)C(OC(C)=O)C(C)O2)c1C3=O (stereo not given)		14.6		2.42		> 100		4.89						> 20.4		14.1			7.63	
Cc1cc2nc3c(=O)[nH]c(=O)nc-3n(CC(O)C(O)C(O)CO)c2cc1N (stereo not given)		> 100		> 100		> 100				> 100		> 100				> 100				
O=C[C@]12CC=C3OC4OC5(CCCCC5)OC4[C@H]3[C@H]1C(=O)C=CC2=O (stereo not given in full)		> 100				35.5		89		31.7		58.7		64.6		> 100	22.1			
O=c1c2ccccc2nc2n1CCc1c-2[nH]c2cc3c(cc12)OCO3		> 25				> 25		> 25	1.5	6.35	1.55	> 25		> 25		21.9	> 25	5.05	17.5	

— PubChem BioAssay (NCI)
